These results are taken from PMC4876444, “Two-Photon Enzymatic Probes Visualizing Sub-cellular/Deep-brain Caspase Activities in Neurodegenerative Models” (Scientific Reports, 2016).

Each structure is given as a SMILES string. Where a SMILES comes first, the peptide text is derived from it. The star is where a group is joined. NH(6-Ac-2-naphthyl) = CC(=O)c1ccc2cc(N*)ccc2c1

For data set [1], the target named is T1, caspase-1 (Homo sapiens, UniProt P29466).
T1 construct: purchased Merck
T1 sequence (P29466 120-297 limits assumed): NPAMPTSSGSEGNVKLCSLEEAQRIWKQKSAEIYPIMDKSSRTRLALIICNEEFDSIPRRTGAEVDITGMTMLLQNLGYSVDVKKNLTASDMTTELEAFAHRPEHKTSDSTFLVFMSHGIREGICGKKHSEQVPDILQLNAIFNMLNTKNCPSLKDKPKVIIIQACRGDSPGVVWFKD
T1 sequence (P29466 317-404 limits assumed): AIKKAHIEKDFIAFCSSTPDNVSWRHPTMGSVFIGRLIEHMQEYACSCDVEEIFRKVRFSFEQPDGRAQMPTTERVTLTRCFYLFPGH
Nature of the data set: S/N ratio of caspase-1 probes in BV2 lysates spiked with caspase-1. The class given is biochemical. Conditions: probe 6 μM, 25 μg BV2 lysates spiked with caspase-1, 37 °C, 2 h; among the four caspase-1 probes. On the procedure: Figure 2 Photophysical and enzymatic properties of caspase probes. (a) Photophysical and kinetic properties of probes and free dyes. All measurements were taken in 50 mM HEPES, 50 mM NaCl, 0.1% CHAPS, 10 mM EDTA, 5% glycerol, 10 mM DTT, at pH = 7.2. (b) Time-dependent ratiometric fluorescence changes of C1RB (6 μM) incubated with caspase-1 (10 nM) over 2 h at room temperature. Data were obtained by plotting the normalized ratio of fluorescence intensity at 500 nm (F500 nm) over that at 450 nm (F450 nm). (Inset) time-dependent fluorescence emission spectra with λex = 350 nm. (c) Time-dependent “Turn-ON” effect of C1FS (6 μM) incubated with caspase-1 (10 nM) measured and normalized at 460 nm (F460 nm) over 2 h at room temperature, with the corresponding fluorescence emission spectra (inset). λex = 350 nm. (d) Normalized S/N ratio of each of the four caspase-1 probes (6 μM) incubated with 25 μg of BV2 lysates spiked with different concentrations of caspase-1 (37 °C, t = 2 h). S and N represent the fluorescence emission intensity of each reaction solution in the presence (S) and absence (N) of caspase-1. […] (−) no caspase; (caspase-1) 1.5 nM; (caspase-3) 0.8 nM; (caspase-6) 0.2 μM; (caspase-8) 10 nM; (caspase-9) 0.5 μM. […] Normalized, relative fluorescence (RFU) values were obtained after 2-h incubation at room temperature. […]

In data set [2] the test system is NIH/3T3, BV2 and HeLa cells. Nature of the data set: XTT cytotoxicity assay. The class given is cell-based, mouse, human. Conditions: XTT assay, 12, 30, 60, 120 μM, 24 h. On the procedure:
Supplementary Figure 4. Cytotoxicity of two-photon enzymatic probes (12, 30, 60, 120 μM) in mammalian cells (NIH/3T3, BV2 and HeLa) after incubation for 24 h, as determined by XTT assay. […]
Detection of caspase activities in mammalian cells and tissues
Cell culture. The mouse embryonic fibroblast cell line (NIH/3T3), mouse microglial cell line (BV2) and human epithelial carcinoma cell line (HeLa) used in our experiments were cultured in Dulbecco’s Modified Eagle's Medium (DMEM) supplemented with 10% (for NIH/3T3 and HeLa) or 5% (for BV2) fetal bovine serum (FBS), 100.0 mg/L streptomycin and 100 IU/mL penicillin in a humidified atmosphere of 5% CO2 at 37 °C.
XTT assay. The cytotoxicity of our probes was determined by using the XTT colorimetric cell proliferation kit (Roche) following manufacturer’s guidelines. Briefly, NIH/3T3, BV2 and HeLa cells were seeded in 20~30% confluency (since they will reach >50% confluency within 24 h) into 96-well plates and incubated overnight before the addition of probes with concentrations of 12 μM, 30 μM, 60 μM and 120 μM, respectively. Probes were applied from DMSO stocks whereby DMSO never exceeded 1% in the final solution. The same volume of DMSO was used as a negative control; and the same volume of STS (200 nM) was used as a positive control. After a total treatment time of 24 h, proliferation was assayed using the XTT assay (Supplementary Fig. 4). […]

Assay in data set [3]: not given
The source holds these as a separate data set.

Assay in data set [4]: not given
This is another data set of the same source.

Data set [5] concerns caspase-1 in primary cortical neurons. Kind of data set: TPFM of caspase-1 activation in glucose-deprived primary cortical neurons. The class given is cell-based, mouse. Conditions: 50 μM, added 1 h prior to the probe (t = 7 h during GD).
Protocol: NC: neuron cells incubated in normal neurobasal medium.
All two-photon images were taken on a Leica TCS SP5X Confocal Microscope System. […] Dissociated neuron-enriched cell cultures of cerebral cortex were established from day 16 C57BL/6 mouse embryos, as described[53]. Primary neurons were cultured in the neurobasal medium (Gibco) with 2% B27 and 0.5 mM GlutaMAX. Experiments were performed in 7–9 day-old cultures. For glucose-deprivation studies, glucose-free neurobasal medium was used (with other components fixed). The cultured neurons were incubated in glucose-free medium for 8 h, while control cells were incubated in normal neurobasal medium.
Caspase-1-like activities detected in primary cortical neurons of C57BL/6 mouse underwent
glucose-deprivation (GD) treatment.
neurons grown in normal culture medium and incubated with C1RB/C1FS for 1 h (NC). Panels 2/5: primary neuron
underwent GD induction for 8 h and incubated with C1RB/C1FS for 1 h.
(50 μM) was added 1 h earlier (t = 7 h) than C1RB/C1FS.
TPFM imaging of caspase activities in primary cortical neurons and fresh tissues.
Dissociated neuron-enriched cell cultures of cerebral cortex were established from day 16 C57BL/6 mouse embryos, as described.14 Primary neurons were cultured in the neurobasal medium (Gibco) with 2% B27 and 0.5 mM GlutaMAX. Experiments were performed in 7-9 day-old cultures. […]

For `CC(=O)N[C@@H](Cc1c[nH]c2ccccc12)C(=O)N[C@@H](CCC(=O)O)C(=O)N[C@@H](Cc1c[nH]cn1)C(=O)N[C@@H](CC(=O)O)C(=O)Nc1ccc2cc(C(C)=O)ccc2c1` [C1RB, Ac-WEHD-AAN] (Ac-WEHD-{NH(6-Ac-2-naphthyl)}), the δΦ (two-photon action cross-section) is 2.3 GM. For the same compound, the “detection limit of caspase-1 activity” value in data set [1] is recorded as “lowest detection limit”. In data set [2], the cytotoxicity entry is reported as “minimally cytotoxic”. Moreover, the λem (emission maximum) in data set [3] is 448 nm. In data set [4], this compound gave a λex (absorption/excitation maximum) of 316 nm.

`CCO[C@@H]1OC(=O)C[C@@H]1NC(=O)[C@@H]1CCCN2C(=O)CC[C@H](NC(=O)c3nccc4ccccc34)C(=O)N12` [Pralnacasan]: in data set [5], the “effect of inhibitor on C1RB/C1FS fluorescence signals in glucose-deprived neurons” value is given as “inhibited”.
